Columns and labels:
lithium-treated rats = assay: Effect of clopidogrel on lithium-induced alterations in rats (natriuresis, urinary nitrates/nitrites, hematocrit, body and kidney weight); details: 2 weeks
Method: (§1) Animal experiments: Male Sprague-Dawley rats were purchased from Charles River (Wilmington, Mass., USA), and Brattleboro mutant rats that lack AVP (HsdBlu:BRAT-Avp^di) were obtained from the Rat Resource & Research Center (RRRC), University of Missouri, Columbia, Mo., USA. Mice (B6D2 genetic background) were bred in-house. […] Lithium-added chow (40 mmol Li/kg chow) was custom prepared (MP Biomedicals, Aurora, Ohio, USA). Clopidogrel bisulfate was administered orally by powdering and dissolving Plavix® tablets (Bristol-Myers Squibb, New York, N.Y., USA) in drinking water. The concentration of the drug in the drinking water was adjusted daily based on the water consumption of the animals the previous day. The clopidogrel dose used in Sprague-Dawley rats (20 mg/kg bw/day) was the same as used by other investigators (de La Crux et al, 2003; Graciano et al, 2008). In mice, clopidogrel was administered at a dose of 80 mg/kg bw/day. When compared with the human clinical dose of Plavix®, and adjusted to the Km factor (ratio of body surface area to body weight) of the species (man vs. rat or mouse) (Reagan-Shaw et al, 2007), the doses used in rats or mice were 2.5- and 5-fold higher, respectively. […] A higher dose of clopidogrel (40 mg/kg bw/day) was used in Brattleboro rats to ensure an unequivocal outcome whether positive or negative. Twenty-four hour urine samples were collected by placing the animals in the appropriate metabolic cages designed for rats and mice. Blood and kidney tissues were collected at necropsy. Cortical, outer and inner medullary regions of the kidneys were dissected out and processed for laboratory assays.
(§2) Blood, urine and tissue analysis: Osmolalities of clear urine samples were measured by vapor pressure method (Wescor, Logan, Utah, USA). Microhematocrit was determined by centrifuging free-flowing blood collected in heparinized capillary tubes in a microhematocrit centrifuge (Clay Adams, Parsippany, N.J., USA). Urinary excretion of AVP was quantified by a commercial ELISA kit (Enzo Life Sciences, Farmingdale, N.Y., USA). Total nitrate/nitrite contents of urine samples were determined by a commercial kit (Cayman Chemical, Ann Arbor, Mich.).Na, Li and K levels in serum and/or urine were determined on EasyElectrolyte® (Medica Corp., Bedford, Mass., USA). Based on serum and urine analysis, electrolyte-free clearance [CH20(e)] was computed using the formula CH20(e)=V((1−UNa+UK)/PNa), where V=urine volume, UNa and UK are urine Na and K, and PNa is plasma Na, respectively (Schrier 2006). Lithium levels in inner medullary tissue homogenates were assayed by Inductively Coupled Plasma-Mass Spectrometry (ICPMS) by Exova (Santa Fe Springs, Calif., USA), and were normalized to their respective protein contents.
Statistical Analysis: All quantitative data are expressed as mean±standard error (SE). Comparisons among the means of multiple groups were made by one-way analysis of variance (ANOVA), followed by the assessment of statistical significance by Tukey-Kramer Multiple Comparison Test or Student-Newman-Keuls Multiple Comparison Test. Differences between the means of two groups were determined by unpaired t test or where applicable, by Mann-Whitney nonparametric test. P values less than 0.05 were considered significant. GraphPad Instat® (GraphPad Software, Inc., La Jolla, Calif.) was used for statistical analysis.

Sprague-Dawley rats = system: Sprague-Dawley rats
Method: (§3) Animal experiments: Male Sprague-Dawley rats were purchased from Charles River (Wilmington, Mass., USA), and Brattleboro mutant rats that lack AVP (HsdBlu:BRAT-Avpdi) were obtained from the Rat Resource & Research Center (RRRC), University of Missouri, Columbia, Mo., USA. Mice (B6D2 genetic background) were bred in-house. […] Lithium-added chow (40 mmol Li/kg chow) was custom prepared (MP Biomedicals, Aurora, Ohio, USA). Clopidogrel bisulfate was administered orally by powdering and dissolving Plavix® tablets (Bristol-Myers Squibb, New York, N.Y., USA) in drinking water. The concentration of the drug in the drinking water was adjusted daily based on the water consumption of the animals the previous day. The clopidogrel dose used in Sprague-Dawley rats (20 mg/kg bw/day) was the same as used by other investigators (de La Crux et al, 2003; Graciano et al, 2008). In mice, clopidogrel was administered at a dose of 80 mg/kg bw/day. […]
Microhematocrit was determined by centrifuging free-flowing blood collected in heparinized capillary tubes in a microhematocrit centrifuge (Clay Adams, Parsippany, N.J., USA). Urinary excretion of AVP was quantified by a commercial ELISA kit (Enzo Life Sciences, Farmingdale, N.Y., USA). […]

AQP1 water channel = details: normal rats, clopidogrel 20 mg/kg bw/day 13 days
Method: (§4) Tissue samples were prepared and immnoblotted for semi-quantitative determination of protein abundances of P2Y12 receptor, and β-actin by the methods described previously (Zhang et al, ibid, 2008, 2009, 2010). Whole tissue homogenates were prepared in the presence of protease inhibitors, and the concentrations of proteins in the homogenates were determined, and solubilized in Laemmli buffer. Then the solubilized proteins were size fractionated on 12% SDS-polyacrylamide gels. Quality of tissue sample preparation and equality of protein loading were verified by staining parallel-run loading gels with Coomassie-blue (Gelcode Blue, Pierce Endogen, Rockford, Ill.). The size fractionated proteins were electrotransferred to nitrocellulose membranes, and blocked with buffer containing non-fat milk. Differences in protein loading were corrected by normalizing the band densities of the target proteins to that of β-actin (polyclonal antibody from Biolegend, San Diego, Calif., USA). After washing, the blocked membranes were incubated with rabbit polyclonal antibodies to either P2Y12 receptor (AnaSpec, Fremont, Calif.) or aquaporin-2 (AQP2; Zhang et al, ibid, 2008) or AQP1 (commercial source) or β-actin (Biolegend, San Diego, Calif.). Non-specific binding was prevented by incubation of the membranes with goat serum. Generation and characterization of AQP2 antibody (GN-762) was described previously (Kishore et al, 2000; Zhang et al, 2008). When peptide block was tested, prior to its use on the membranes the P2Y12 receptor antibody was pre-adsorbed by incubation with the blocking peptide as per the instructions of the supplier (AnaSpec, Fremont, Calif.). After washing off the primary antibodies, the nitrocellulose membranes were incubated with a peroxidase-conjugated secondary antibody to rabbit IgG (Dako North America, Carpinteria, Calif.). Chemiluminescence reaction was used to detect sites of antigen-antibody reactions (SuperSignal Substrate; Pierce Endogen, Rockford, Ill.), and captured on an X-ray film. Images were digitized and band densities were quantified by using Un-San-It software (Silk Scientific, Orem, Utah). The band densities of AQP2 were normalized by the band densities of β-actin. Mean values of relative band densities thus obtained for P2Y12 receptor were expressed as percent of the mean values obtained in the control group of animals.
(§5) Clopidogrel bisulfate was given orally to a group of Sprague-Dawley rats (n=4) for 13 days by dissolving powdered Plavix® tablets (75 mg base; Bristol-Myers Squibb/Sanofi, Bridgeport, N.J.) in drinking water, so that the rats consumed at least 20 mg of clopidogrel bisulfate base per kg body weight per day. The concentration of the drug in the drinking water was adjusted daily based on the water consumption of the rats the previous day. Another group of rats (n=4) was given plain water and this group served as controls.

[1] = system: AQP2 water channel protein; details: normal rats, clopidogrel 20 mg/kg bw/day in drinking water 13 days, vs control
Method: as §4, §5

P2Y12 receptor = details: normal rats, clopidogrel 20 mg/kg bw/day 13 days
Method: as §4, §5

[2] = system: lithium-induced polyuria in rats
Method: as §1, with “(HsdBlu:BRAT-Avpdi)” for “(HsdBlu:BRAT-Avp^di)”
as §2, with “Microhematocrit” for “Blood, urine and tissue analysis: Osmolalities of clear urine samples were measured by vapor pressure method (Wescor, Logan, Utah, USA). Microhematocrit”, “Total nitrate/nitrite contents of urine samples were determined by a commercial kit (Cayman Chemical, Ann Arbor, Mich.).Na, Li and K levels in serum and/or urine were determined on EasyElectrolyte® (Medica Corp., Bedford, Mass., USA).” left out

[3] = rats, lithium diet with clopidogrel vs lithium alone, ICPMS
Method: as §2, with “Microhematocrit” for “Blood, urine and tissue analysis: Osmolalities of clear urine samples were measured by vapor pressure method (Wescor, Logan, Utah, USA). Microhematocrit”, “Total nitrate/nitrite contents of urine samples were determined by a commercial kit (Cayman Chemical, Ann Arbor, Mich.).Na, Li and K levels in serum and/or urine were determined on EasyElectrolyte® (Medica Corp., Bedford, Mass., USA).” left out

[4] = system: lithium-induced polyuria in mice (B6D2 genetic background); details: lithium diet + clopidogrel 80 mg/kg bw/day 14 days vs LI alone, P<0.05 or better
Method: as §3, with “bw/day. When compared with the human clinical dose of Plavix®, and adjusted to the Km factor (ratio of body surface area to body weight) of the species (man vs. rat or mouse) (Reagan-Shaw et al, 2007), the doses used in rats or mice were 2.5- and 5-fold higher, respectively.” for “bw/day.”
The effect of administration of clopidogrel on lithium-induced polyuria was determined in mice (B6D2 genetic background). […]

AQP2 protein = details: mice, lithium diet + clopidogrel 80 mg/kg bw/day 14 days
Method: The effect of administration of clopidogrel on lithium-induced polyuria was determined in mice (B6D2 genetic background). Groups of mice were administered either a lithium-containing diet (40 mmol/kg chow; custom prepared by MP Biomedicals, Aurora, Ohio) or lithium-containing diet plus clopidogrel (80 mg per kg body weight per day in drinking water) for 14 days. Twenty-four urine samples were collected prior to the start of the treatment (day 0), on days 8 and 9, and days 13 and 14. The data plotted in the graphs represent the mean of the values obtained on the two consecutive days. Results are mean±SE; n=5 for LI alone group and n=6 for LI+CLPD group; ANOVA followed by Tukey Kramer Multiple Comparison Test.

Brattleboro mutant rats = details: Brattleboro rats lacking AVP, clopidogrel 40 mg/kg bw/day in drinking water 2 weeks
Method: as §3, with “(HsdBlu:BRAT-Avp^di)” for “(HsdBlu:BRAT-Avpdi)”, “day.” for “day. The clopidogrel dose used in Sprague-Dawley rats (20 mg/kg bw/day) was the same as used by other investigators (de La Crux et al, 2003; Graciano et al, 2008). In mice, clopidogrel was administered at a dose of 80 mg/kg bw/day.”
Blood, urine and tissue analysis: Osmolalities of clear urine samples were measured by vapor pressure method (Wescor, Logan, Utah, USA). Microhematocrit was determined by centrifuging free-flowing blood collected in heparinized capillary tubes in a microhematocrit centrifuge (Clay Adams, Parsippany, N.J., USA). Urinary excretion of AVP was quantified by a commercial ELISA kit (Enzo Life Sciences, Farmingdale, N.Y., USA). Total nitrate/nitrite contents of urine samples were determined by a commercial kit (Cayman Chemical, Ann Arbor, Mich.).Na, Li and K levels in serum and/or urine were determined on EasyElectrolyte® (Medica Corp., Bedford, Mass., USA). […]

[5] = system: ADP-activated P2Y12 receptor
rats = details: upto 4 weeks; cited from earlier work
[6] = rats, lithium treatment alone (40 mmol Li/kg chow)
[7] = rats, lithium + clopidogrel (40 mg/kg bw/day per FIG. 11 legend)
[8] = rats, lithium + clopidogrel (40 mg/kg bw/day per FIG. 12 legend)

In the case of `[Li]` [Lithium, lithium], the “kidney weight as a percent of body weight” value (lithium-treated rats; lithium-treated rats with or without added clopidogrel) was “did not change”, the “gain in body weight” value (lithium-treated rats; [6]) was “significantly low” and the terminal hematocrit (lithium-treated rats; [6]) was “significant elevation”.
With `COC(=O)[C@H](c1ccccc1Cl)N1CCc2sccc2C1` [clopidogrel] the “urinary excretion of AVP” value (Sprague-Dawley rats; clopidogrel administration alone, rats) was “significantly increased”, the urinary concentration (Sprague-Dawley rats; normal rats, clopidogrel 20 mg/kg bw/day in drinking water 13 days) was “Increased” and the “protein abundance of AQP1 water channel in the kidney” value (AQP1 water channel) was “did not appear to alter”. For the same compound, the “increase of AQP2 protein abundance in the inner medulla” value ([1]; P<0.002) was 1.9 fold, the “increase of AQP2 protein abundance in the cortex” value ([1]; P<0.02) was 2.7 fold and the “increase of AQP2 protein abundance in the outer medulla” value ([1]; P=0.24) was “not in the outer medulla”. The “protein abundance of P2Y12 receptor in the kidney” value (P2Y12 receptor) was “did not appear to alter”, the “solute-free water absorption (negative value)” value ([2]; clopidogrel administered alone) was “modestly increased” and the “lithium-induced urinary AVP levels” value ([2]; co-administration of clopidogrel with lithium) was “augmented”. For the same compound, the lithium-induced polyuria ([2]; lithium diet 40 mmol/kg chow + clopidogrel 20 mg/kg/day, 13 days) was “significantly ameliorated”, the “lithium-induced solute-free water excretion (electrolyte-free water clearance, positive value)” value ([2]; lithium diet + clopidogrel 20 mg/kg/day, 13 days) was “effectively reversed” and the “accumulation of lithium in the inner medulla” value [3] was “no effect”. The water intake [4] was “significant decrease”, the “lithium-induced decrease in AQP2 protein abundance in the renal medulla” value (AQP2 protein) was “significantly prevented” and the urinary concentrating ability (Brattleboro mutant rats) was “did not increase”. For the same compound, the “lithium-induced increase in urinary NO3/NO2 (total nitrates/nitrites excretion)” value (lithium-treated rats; [7]) was “significantly ameliorated”, the “lithium-induced natriuresis (urinary sodium excretion)” value (lithium-treated rats; [7]) was “modest effect” and the “lithium-induced increase in terminal hematocrit” value (lithium-treated rats; [8]) was “reversed”. The “low gain in body weight due to lithium-treatment” value (lithium-treated rats; [8]) was “did not ameliorate”, the “development of AVP-resistant polyuria” value ([5]; lithium-treated rodents) was “blocked the development” and the “AVP in the urine (surrogate for plasma AVP levels)” value ([5]; rodents) was “increased”. The “aquaporin-2 (AQP2) water channel protein in the kidney” value ([5]; rodents) was “increased”, the urinary concentration ([5]; rodents) was “significantly increased” and the “doses free from toxicity” value (rats) was ≤ 165 mg/kg bw/day.

From patent US9913831B2, “Methods and compositions for treating nephrogenic diabetes insipidus” (UNIVERSITY OF UTAH RESEARCH FOUNDATION, priority 2011, dated 2018)
